# In PubChem BioAssay AID2060326 (Molecular Pharmacology Branch, DTP, NCI, 2025):
# System: MDA-MB-468 multi-cell spheroids, viability
# Experiment: Anticancer human tumor MDA-MB-468 cell line growth inhibition [IpAb];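 further: spheroids exposed to agents for seven days; 100% = DMSO vehicle control viability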
# Conditions: second compound 0.1 µM; first compound 1 µM; hits give low values
# Procedure, shortened: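 Multi-cell spheroids of 60% tumour cells, 25% HUVEC and 15% MSC in ultra-low-attachment U-bottom wells, treated with agents combined with ipatasertib or abemaciclib. Half-log ranges top out near clinical Cmax, or 10 microM when Cmax is unknown.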
row,Compound,"viability, T/C [%]"
1,Cn1nccc1Nc1nccc(-c2ccn(C(CO)c3ccc(Cl)c(F)c3)c(=O)c2)n1 (centres undefined) + CCN1CCN(Cc2ccc(Nc3ncc(F)c(-c4cc(F)c5nc(C)n(C(C)C)c5c4)n3)nc2)CC1,83.1
2,C=CCn1c(=O)c2cnc(Nc3ccc(N4CCN(C)CC4)cc3)nc2n1-c1cccc(C(C)(C)O)n1 + CCN1CCN(Cc2ccc(Nc3ncc(F)c(-c4cc(F)c5nc(C)n(C(C)C)c5c4)n3)nc2)CC1,5.75

# Same assay, conditions: second compound 0.1 µM; first compound 3.16 µM; hits give low values
row,Compound,"viability, T/C [%]"
1,Cn1ncc(Cl)c1-c1cc(C(=O)NC(CN)Cc2cccc(F)c2)sc1Cl (centres undefined) + CC(C)NCC(C(=O)N1CCN(c2ncnc3c2C(C)CC3O)CC1)c1ccc(Cl)cc1,16.1
2,Cn1nccc1Nc1nccc(-c2ccn(C(CO)c3ccc(Cl)c(F)c3)c(=O)c2)n1 (centres undefined) + CC(C)NCC(C(=O)N1CCN(c2ncnc3c2C(C)CC3O)CC1)c1ccc(Cl)cc1,57.3
3,C=CC(=O)N1CCN(c2nc(=O)n(-c3c(C)ccnc3C(C)C)c3nc(-c4c(O)cccc4F)c(F)cc23)C(C)C1 (centres undefined) + CCN1CCN(Cc2ccc(Nc3ncc(F)c(-c4cc(F)c5nc(C)n(C(C)C)c5c4)n3)nc2)CC1,97.6
4,Cn1nccc1Nc1nccc(-c2ccn(C(CO)c3ccc(Cl)c(F)c3)c(=O)c2)n1 (centres undefined) + CCN1CCN(Cc2ccc(Nc3ncc(F)c(-c4cc(F)c5nc(C)n(C(C)C)c5c4)n3)nc2)CC1,58.5
5,C=CCn1c(=O)c2cnc(Nc3ccc(N4CCN(C)CC4)cc3)nc2n1-c1cccc(C(C)(C)O)n1 + CCN1CCN(Cc2ccc(Nc3ncc(F)c(-c4cc(F)c5nc(C)n(C(C)C)c5c4)n3)nc2)CC1,3.42

# Same assay, conditions: second compound 0.1 µM; first compound 10 µM; hits give low values
row,Compound,"viability, T/C [%]"
1,Cn1ncc(Cl)c1-c1cc(C(=O)NC(CN)Cc2cccc(F)c2)sc1Cl (centres undefined) + CC(C)NCC(C(=O)N1CCN(c2ncnc3c2C(C)CC3O)CC1)c1ccc(Cl)cc1,0.14
2,Cn1nccc1Nc1nccc(-c2ccn(C(CO)c3ccc(Cl)c(F)c3)c(=O)c2)n1 (centres undefined) + CC(C)NCC(C(=O)N1CCN(c2ncnc3c2C(C)CC3O)CC1)c1ccc(Cl)cc1,2.08
3,C=CC(=O)N1CCN(c2nc(=O)n(-c3c(C)ccnc3C(C)C)c3nc(-c4c(O)cccc4F)c(F)cc23)C(C)C1 (centres undefined) + CCN1CCN(Cc2ccc(Nc3ncc(F)c(-c4cc(F)c5nc(C)n(C(C)C)c5c4)n3)nc2)CC1,24.8
4,Cn1nccc1Nc1nccc(-c2ccn(C(CO)c3ccc(Cl)c(F)c3)c(=O)c2)n1 (centres undefined) + CCN1CCN(Cc2ccc(Nc3ncc(F)c(-c4cc(F)c5nc(C)n(C(C)C)c5c4)n3)nc2)CC1,5.62
5,C=CCn1c(=O)c2cnc(Nc3ccc(N4CCN(C)CC4)cc3)nc2n1-c1cccc(C(C)(C)O)n1 + CCN1CCN(Cc2ccc(Nc3ncc(F)c(-c4cc(F)c5nc(C)n(C(C)C)c5c4)n3)nc2)CC1,2.91

# Same assay, conditions: second compound 0.316 µM; first compound 0.0316 µM; hits give low values
row,Compound,"viability, T/C [%]"
1,Cn1ncc(Cl)c1-c1cc(C(=O)NC(CN)Cc2cccc(F)c2)sc1Cl (centres undefined) + CC(C)NCC(C(=O)N1CCN(c2ncnc3c2C(C)CC3O)CC1)c1ccc(Cl)cc1,57.7
2,Cn1nccc1Nc1nccc(-c2ccn(C(CO)c3ccc(Cl)c(F)c3)c(=O)c2)n1 (centres undefined) + CC(C)NCC(C(=O)N1CCN(c2ncnc3c2C(C)CC3O)CC1)c1ccc(Cl)cc1,66
3,C=CC(=O)N1CCN(c2nc(=O)n(-c3c(C)ccnc3C(C)C)c3nc(-c4c(O)cccc4F)c(F)cc23)C(C)C1 (centres undefined) + CCN1CCN(Cc2ccc(Nc3ncc(F)c(-c4cc(F)c5nc(C)n(C(C)C)c5c4)n3)nc2)CC1,103
4,Cn1nccc1Nc1nccc(-c2ccn(C(CO)c3ccc(Cl)c(F)c3)c(=O)c2)n1 (centres undefined) + CCN1CCN(Cc2ccc(Nc3ncc(F)c(-c4cc(F)c5nc(C)n(C(C)C)c5c4)n3)nc2)CC1,104
5,C=CCn1c(=O)c2cnc(Nc3ccc(N4CCN(C)CC4)cc3)nc2n1-c1cccc(C(C)(C)O)n1 + CCN1CCN(Cc2ccc(Nc3ncc(F)c(-c4cc(F)c5nc(C)n(C(C)C)c5c4)n3)nc2)CC1,105

# Same assay, conditions: second compound 0.316 µM; first compound 0.1 µM; hits give low values
row,Compound,"viability, T/C [%]"
1,Cn1ncc(Cl)c1-c1cc(C(=O)NC(CN)Cc2cccc(F)c2)sc1Cl (centres undefined) + CC(C)NCC(C(=O)N1CCN(c2ncnc3c2C(C)CC3O)CC1)c1ccc(Cl)cc1,51.5
2,Cn1nccc1Nc1nccc(-c2ccn(C(CO)c3ccc(Cl)c(F)c3)c(=O)c2)n1 (centres undefined) + CC(C)NCC(C(=O)N1CCN(c2ncnc3c2C(C)CC3O)CC1)c1ccc(Cl)cc1,54.9
3,C=CC(=O)N1CCN(c2nc(=O)n(-c3c(C)ccnc3C(C)C)c3nc(-c4c(O)cccc4F)c(F)cc23)C(C)C1 (centres undefined) + CCN1CCN(Cc2ccc(Nc3ncc(F)c(-c4cc(F)c5nc(C)n(C(C)C)c5c4)n3)nc2)CC1,108
4,Cn1nccc1Nc1nccc(-c2ccn(C(CO)c3ccc(Cl)c(F)c3)c(=O)c2)n1 (centres undefined) + CCN1CCN(Cc2ccc(Nc3ncc(F)c(-c4cc(F)c5nc(C)n(C(C)C)c5c4)n3)nc2)CC1,92.2
5,C=CCn1c(=O)c2cnc(Nc3ccc(N4CCN(C)CC4)cc3)nc2n1-c1cccc(C(C)(C)O)n1 + CCN1CCN(Cc2ccc(Nc3ncc(F)c(-c4cc(F)c5nc(C)n(C(C)C)c5c4)n3)nc2)CC1,102

# Same assay, conditions: second compound 0.316 µM; first compound 0.316 µM; hits give low values
row,Compound,"viability, T/C [%]"
1,Cn1ncc(Cl)c1-c1cc(C(=O)NC(CN)Cc2cccc(F)c2)sc1Cl (centres undefined) + CC(C)NCC(C(=O)N1CCN(c2ncnc3c2C(C)CC3O)CC1)c1ccc(Cl)cc1,44
2,Cn1nccc1Nc1nccc(-c2ccn(C(CO)c3ccc(Cl)c(F)c3)c(=O)c2)n1 (centres undefined) + CC(C)NCC(C(=O)N1CCN(c2ncnc3c2C(C)CC3O)CC1)c1ccc(Cl)cc1,62
